Key:
Assay type in all cases: in vivo
[1] = system: transplanted rice (var. Nihonbare); experiment: Crop tolerance of transplanted rice, combinations with Thiobencarb, Dimepiperate, Esprocarb and Dymron (Table 15); settings: 2100 GAI/HA; 15 days after application
Source text: (§1) Methyl 2-[[[[(4-methoxy-6-methyl-1,3,5-triazin-2-yl)amino]carbonyl]amino]sulfonyl]benzoate (Compound 1) and mixtures thereof with other compounds were applied as a spray (using a hand sprayer) to rice (either transplanted or direct seeded) in several rice growing areas in Southeast Asia and in the U.S. Tables 1-28 contain the results of these tests and clearly exemplify the utility of this invention. The details of each application are included in the appropriate table. [drawing 2]

weeds = experiment: Greenhouse test of Compound 1 and Compound 2, herbicidal efficacy (Table 26); settings: rated 24 days after treatment; for % CONTROL OR INJURY AT: Alisma triviale; for % CONTROL OR INJURY AP: Alternanthera philoxeroides; for % CONTROL OR INJURY CD: Cyperus difformis; for % CONTROL OR INJURY SR: Sagittaria rigida
Source text: as §1

rice [2] = experiment: Effects in combination with Thiobencarb and Bensulfuron Methyl on rice growth (Table 22); settings: rate 2100 g ai/ha; var. Koshihikari, applied 7 days after transplanting, rated 21 days after application
Source text: as §1

rice [3] = experiment: Effects in combination with Bensulfuron Methyl and Thiobencarb or Pretilachlor on rice growth (Table 23); settings: var. Koshihikari, applied 7 days after transplanting, rated 21 days after application
Source text: as §1

WEED [4] = experiment: Effects in combination with Bensulfuron Methyl and Thiobencarb or Pretilachlor on weed control (Table 24); settings: scale 0 to 10, treated at 1.0 leaf stage, evaluated four weeks later; for WEED CONTROL RATINGS CD: Cyperus difformis; for WEED CONTROL RATINGS CS: Cyperus serotinus; for WEED CONTROL RATINGS EO: Echinochloa oryzicola; for WEED CONTROL RATINGS BL: Lindernia pyxidaria; for WEED CONTROL RATINGS MV: Monochoria vaginalis; for WEED CONTROL RATINGS SP: Sagittaria pygmaea; for WEED CONTROL RATINGS SJ: Scirpus juncoides
Source text: as §1

WEED [5] = experiment: Effects in combination with Bensulfuron Methyl and Thiobencarb or Pretilachlor on weed control (Table 25); settings: scale 0 to 10, treated at 2.0 leaf stage, evaluated four weeks later; for WEED CONTROL RATINGS CD: Cyperus difformis; for WEED CONTROL RATINGS CS: Cyperus serotinus; for WEED CONTROL RATINGS EO: Echinochloa oryzicola; for WEED CONTROL RATINGS BL: Lindernia pyxidaria; for WEED CONTROL RATINGS MV: Monochoria vaginalis; for WEED CONTROL RATINGS SP: Sagittaria pygmaea; for WEED CONTROL RATINGS SJ: Scirpus juncoides
Source text: as §1

## Cc1ccc(NC(=O)NC(C)(C)c2ccccc2)cc1 [Dymron, 1-(α,α-dimethylbenzyl)-3-p-tolylurea]
[1]
  CROP TOLERANCE (Nihonbare) DW, dry weight relative to untreated check: 107%
  CROP TOLERANCE (Nihonbare) PH, plant height relative to untreated check: 102%
  CROP TOLERANCE (Nihonbare) VA, visual crop injury: 0%

## COC(=O)c1ccccc1S(=O)(=O)NC(=O)Nc1nc(OC)cc(OC)n1 [Compound 2, methyl 2-[[[[(4,6-dimethoxy-2-pyrimidinyl)amino]carbonyl]amino]sulfonyl]benzoate]
weeds; rate 1 g ai/ha
  % CONTROL OR INJURY AT: 95%
  % CONTROL OR INJURY AP: 0%
  % CONTROL OR INJURY CD: 70%
  % CONTROL OR INJURY SR: 0%
weeds; rate 2 g ai/ha
  % CONTROL OR INJURY AT: 95%
  % CONTROL OR INJURY AP: 0%
  % CONTROL OR INJURY CD: 80%
  % CONTROL OR INJURY SR: 0%
weeds; rate 4 g ai/ha
  % CONTROL OR INJURY AT: 95%
  % CONTROL OR INJURY AP: 20%
  % CONTROL OR INJURY CD: 100%
  % CONTROL OR INJURY SR: 80%
weeds; rate 8 g ai/ha
  % CONTROL OR INJURY AT: 95%
  % CONTROL OR INJURY AP: 30%
  % CONTROL OR INJURY CD: 100%
  % CONTROL OR INJURY SR: 80%

## CCN(CC)C(=O)SCc1ccc(Cl)cc1 [Thiobencarb, S-[(4-chlorophenyl)methyl]diethylcarbamothioate, reference compound]
[1]
  CROP TOLERANCE (Nihonbare) DW, dry weight relative to untreated check: 112%
  CROP TOLERANCE (Nihonbare) PH, plant height relative to untreated check: 102%
  CROP TOLERANCE (Nihonbare) VA, visual crop injury: 0%
Rice [2]
  CROP TOLERANCE DW (Dry weight relative to untreated check): 99%
  CROP TOLERANCE PH (Plant height relative to untreated check): 99%
  CROP TOLERANCE VA (Visual crop injury): 0%
Rice [3]; rate 2100 g ai/ha
  CROP TOLERANCE DW (Dry weight relative to untreated check): 81%
  CROP TOLERANCE PH (Plant height relative to untreated check): 93%
  CROP TOLERANCE VA (Visual crop injury): 2%
WEED [4]; rate 2100 g ai/ha
  WEED CONTROL RATINGS CD: 10
  WEED CONTROL RATINGS CS: 9
  WEED CONTROL RATINGS EO: 10
  WEED CONTROL RATINGS BL: 9
  WEED CONTROL RATINGS MV: 10
  WEED CONTROL RATINGS SP: 0
  WEED CONTROL RATINGS SJ: 7
WEED [5]; rate 2100 g ai/ha
  WEED CONTROL RATINGS CD: 10
  WEED CONTROL RATINGS CS: 2
  WEED CONTROL RATINGS EO: 6
  WEED CONTROL RATINGS BL: 9.5
  WEED CONTROL RATINGS MV: 10
  WEED CONTROL RATINGS SP: 0
  WEED CONTROL RATINGS SJ: 8.5

## CCCOCCN(C(=O)CCl)c1c(CC)cccc1CC [Pretilachlor]
Rice [3]; rate 600 g ai/ha
  CROP TOLERANCE DW (Dry weight relative to untreated check): 71%
  CROP TOLERANCE PH (Plant height relative to untreated check): 87%
  CROP TOLERANCE VA (Visual crop injury): 3%

## CCCOCCN(C(=O)CCl)c1c(CC)cccc1CC [PRETILACHLOR]
WEED [4]; rate 600 g ai/ha
  WEED CONTROL RATINGS CD: 10
  WEED CONTROL RATINGS CS: 3
  WEED CONTROL RATINGS EO: 10
  WEED CONTROL RATINGS BL: 10
  WEED CONTROL RATINGS MV: 5
  WEED CONTROL RATINGS SP: 3
  WEED CONTROL RATINGS SJ: 5
WEED [5]; rate 600 g ai/ha
  WEED CONTROL RATINGS CD: 10
  WEED CONTROL RATINGS CS: 3
  WEED CONTROL RATINGS EO: 7
  WEED CONTROL RATINGS BL: 7
  WEED CONTROL RATINGS MV: 3
  WEED CONTROL RATINGS SP: 6
  WEED CONTROL RATINGS SJ: 2
